From ChEMBL document CHEMBL4406877, “Synthesis of 2-arylhydrazinylidene-3-oxo-4,4,4-trifluorobutanoic acids as new selective carboxylesterase inhibitors and radical scavengers” (Bioorg Med Chem Lett, 2019)
Activity calls are given as the source filed them. The calls are words filed in the database; no cut-off is given here.

What was measured:
Liver carboxylesterase [1] = target: T1, Liver carboxylesterase (Sus scrofa, UniProt Q29550); test: Inhibition of porcine liver carboxylesterase using 4-NPA as substrate preincubated for 10 mins followed by substrate addition by spectrophotometric analysis
T1 sequence (Q29550 whole entry): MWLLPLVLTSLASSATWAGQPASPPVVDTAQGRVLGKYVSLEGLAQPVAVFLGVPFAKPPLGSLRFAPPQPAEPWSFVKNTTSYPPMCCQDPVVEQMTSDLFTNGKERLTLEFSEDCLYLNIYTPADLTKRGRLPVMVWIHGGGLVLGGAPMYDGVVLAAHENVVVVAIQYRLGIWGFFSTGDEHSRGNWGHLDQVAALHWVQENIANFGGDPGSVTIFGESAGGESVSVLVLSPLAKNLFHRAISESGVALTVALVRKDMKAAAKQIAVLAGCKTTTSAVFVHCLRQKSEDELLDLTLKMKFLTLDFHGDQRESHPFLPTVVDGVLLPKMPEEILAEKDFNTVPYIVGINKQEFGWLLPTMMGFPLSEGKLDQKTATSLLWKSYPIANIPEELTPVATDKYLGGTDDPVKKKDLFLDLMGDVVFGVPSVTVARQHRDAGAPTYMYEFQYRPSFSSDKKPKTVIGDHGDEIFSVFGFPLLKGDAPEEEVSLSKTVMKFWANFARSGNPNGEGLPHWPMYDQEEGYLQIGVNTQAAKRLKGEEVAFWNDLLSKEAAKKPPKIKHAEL

[2] = Antioxidant activity assessed as decrease in ABTS radical cation scavenging activity every 1 min for 6 mins by UV-Vis spectrophotometric analysis; assay type: functional
[3] = target: Acetylcholinesterase (Homo sapiens) (UniProt P22303); test: Inhibition of human erythrocyte AChE at 20 uM using acetylthiocholine iodide as substrate preincubated for 10 mins followed by substrate addition by Ellman's method relative to control
Chain of Acetylcholinesterase (Homo sapiens) (P22303 whole entry): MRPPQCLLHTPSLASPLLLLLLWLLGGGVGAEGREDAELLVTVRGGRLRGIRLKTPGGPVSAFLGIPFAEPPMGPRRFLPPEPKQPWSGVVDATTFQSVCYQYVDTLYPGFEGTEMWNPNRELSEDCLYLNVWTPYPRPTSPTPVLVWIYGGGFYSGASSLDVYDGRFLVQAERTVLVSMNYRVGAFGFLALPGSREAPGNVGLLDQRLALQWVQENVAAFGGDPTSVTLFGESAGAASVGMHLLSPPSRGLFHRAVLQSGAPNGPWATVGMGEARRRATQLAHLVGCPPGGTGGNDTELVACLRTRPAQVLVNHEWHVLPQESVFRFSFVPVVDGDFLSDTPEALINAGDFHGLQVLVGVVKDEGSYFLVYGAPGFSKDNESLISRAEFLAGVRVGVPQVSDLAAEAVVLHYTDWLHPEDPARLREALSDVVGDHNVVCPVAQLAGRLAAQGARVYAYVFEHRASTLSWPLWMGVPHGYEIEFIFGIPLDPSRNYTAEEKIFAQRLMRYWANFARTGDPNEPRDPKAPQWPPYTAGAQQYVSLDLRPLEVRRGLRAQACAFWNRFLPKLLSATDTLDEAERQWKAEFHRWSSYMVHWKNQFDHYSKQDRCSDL

[4] = target: Cholinesterase (Equus caballus) (UniProt P81908); test: Inhibition of equine serum BuChE at 20 uM using […] as substrate preincubated for 10 mins followed by substrate addition by Ellman's method relative to control
Chain of Cholinesterase (Equus caballus) (P81908 whole entry): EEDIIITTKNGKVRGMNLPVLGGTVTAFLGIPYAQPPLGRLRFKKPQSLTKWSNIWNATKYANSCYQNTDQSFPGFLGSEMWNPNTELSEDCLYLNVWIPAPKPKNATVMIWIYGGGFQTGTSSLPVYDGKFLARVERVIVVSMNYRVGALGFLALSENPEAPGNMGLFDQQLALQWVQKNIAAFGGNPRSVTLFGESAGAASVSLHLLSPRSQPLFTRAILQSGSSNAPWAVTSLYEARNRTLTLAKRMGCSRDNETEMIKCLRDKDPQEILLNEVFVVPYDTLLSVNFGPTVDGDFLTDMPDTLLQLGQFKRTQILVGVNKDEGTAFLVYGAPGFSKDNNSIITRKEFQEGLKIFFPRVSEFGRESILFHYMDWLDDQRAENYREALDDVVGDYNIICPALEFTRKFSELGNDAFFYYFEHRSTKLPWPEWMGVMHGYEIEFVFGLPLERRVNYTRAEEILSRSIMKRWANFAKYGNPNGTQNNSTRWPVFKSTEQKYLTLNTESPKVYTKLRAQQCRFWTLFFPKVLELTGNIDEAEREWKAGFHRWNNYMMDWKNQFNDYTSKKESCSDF

[5] = Potency index, ratio of trolox IC50 to test compound IC50 for antioxidant activity assessed as decrease in ABTS radical cation scavenging activity; assay type: functional
Liver carboxylesterase [6] = target: T1, Liver carboxylesterase; test: Inhibition of porcine liver carboxylesterase at 20 uM using 4-NPA as substrate preincubated for 10 mins followed by substrate addition by spectrophotometric analysis relative to control; settings: pig
[7] = Potency index, ratio of ascorbic acid IC50 to test compound IC50 for antioxidant activity assessed as decrease in ABTS radical cation scavenging activity; assay type: functional
Liver carboxylesterase [8] = target: T1, Liver carboxylesterase; test: Competitive inhibition of porcine liver carboxylesterase by double reciprocal Lineweaver-Burk plot analysis
Liver carboxylesterase [9] = target: T1, Liver carboxylesterase; test: Non-competitive inhibition of porcine liver carboxylesterase by double reciprocal Lineweaver-Burk plot analysis; settings: pig
[10] = Antioxidant activity assessed as decrease in ABTS radical cation scavenging activity after 1 min by UV-Vis spectrophotometric analysis relative to control; assay type: functional; set-up: scale not given: the % may be the effect or the level left

| Compound | IC50 (Liver carboxylesterase [1]) [µM] | IC50 [2] [µM] | inhibition [3] | inhibition [4] | Ratio IC50 [5] | inhibition at 20 µM (Liver carboxylesterase [6]; porcine liver carboxylesterase, probe 4-NPA) [%] | inhibition (INH) (Liver carboxylesterase [6]; 20 µM) | Ratio IC50 [7] | Ki (Liver carboxylesterase [8]) [µM] | alphaKi (Liver carboxylesterase [9]) [µM] | Activity [10] [%] |
| --- | --- | --- | --- | --- | --- | --- | --- | --- | --- | --- | --- |
| CCOC(=O)c1ccc(N/N=C(\C(=O)O)C(=O)C(F)(F)F)cc1 | 0.324 | 96.4 | 8.1% | 3.4% | 0.25 | – | – | – | – | – | – |
| O=C1O[C@H]([C@@H](O)CO)C(O)=C1O [ASCORBIC ACID] | – | 21.4 | – | – | 0.98 | – | – | – | – | – | – |
| CC(=O)/C(=N/Nc1ccc(C)cc1)C(=O)O | – | 12.8 | inactive | inactive | 1.65 | 9.3 | – | – | – | – | – |
| COc1ccc(N/N=C(/C(C)=O)C(=O)O)cc1 | – | 9.7 | inactive | 5.4% | 1.9 | – | Not Active | – | – | – | – |
| Cc1ccc(N/N=C(\C(=O)O)C(=O)C(F)(F)F)cc1 | 0.63 | 12.1 | inactive | 18.1% | 1.69 | – | – | 2 | 0.337 | 1.11 | – |
| CCOC(=O)c1ccccc1N/N=C(\C(=O)O)C(=O)C(F)(F)F | 0.0696 | – | 16.5% | 8.7% | 0.01 | – | – | – | – | – | – |
| O=C(O)/C(=N\Nc1ccc([N+](=O)[O-])cc1)C(=O)C(F)(F)F | 2.76 | – | 6.1% | 17.3% | 0.05 | – | – | – | – | – | – |
| O=[N+]([O-])c1ccc(OP(=O)(O)Oc2ccc([N+](=O)[O-])cc2)cc1 | – | – | inactive | inactive | – | – | – | – | – | – | – |
| Cc1c(C)c2c(c(C)c1O)CCC(C)(C(=O)O)O2 (stereo not drawn) [TROLOX] | – | 20.4 | – | – | – | – | – | – | – | – | – |
| COc1ccc(N/N=C(\C(=O)O)C(=O)C(F)(F)F)cc1 | 2.62 | 11 | inactive | 17.3% | 1.9 | – | – | 2 | – | – | 75 |
